Measurements taken from paper PMC7562719, “Discovery of a CNS penetrant small molecule SMN2 splicing modulator with improved tolerability for spinal muscular atrophy” (Scientific Reports, 2020).
Read-outs that look alike come from different tables or passages of the source.

Assays:
ChAT protein = ChAT protein in iPSC-derived motor neurons (western blot); format: cell-based, human; settings: iPSC-derived motor neurons (GM24468), 3 days
Protocol: GM03813 fibroblasts and GM24468-derived MNs were seeded at 1.5 × 10^4 and 4 × 10^4 cells/well in 96-well plates and were treated with TEC-1 or SMN-C3 for 72 h at the concentration of 0.01, 0.03, 0.1, 0.3, 1, or 3 µM. After 72 h exposure of compound, GM24468 derived MNs and GM03813 fibroblasts were washed once with D-PBS (-), lysed with RIPA buffer (Wako) containing cOmplete (Sigma-Aldrich) and PhosSTOP (Sigma-Aldrich). The lysates were spun at 15,000 rpm for 15 min at 4 °C, and the supernatants were collected. The protein concentration was quantified with BCA kit (Wako). The lysates, adjusted to have the same protein amount, were mixed with NuPAGE LDS sample buffer containing DTT and heated at 95 °C for 5 min. Except for HTT detection, each sample (2 µg total protein/lane) was loaded Perfect NT Gel 7.5–15% gel (DRC, Japan) and run at 150 V for 60–70 min with Tris/glycine/SDS running buffer (BIO-RAD, USA). The proteins were transferred from the gel to Immobilon-P PVDF Membrane (Millipore, USA) with a transfer solution comprising 10% methanol and 1 × Novex Tris-glycine transfer buffer at 25 V for 180–240 min using Criterion blotter (BIO-RAD). […] After washing with TBS-T four times, chemiluminescence signals were detected by Immunostar Zeta (Wako) and LAS-4000 (GE healthcare).

[1] = pharmacokinetic study in neonatal/juvenile FVB mice, intraperitoneal; format: in vivo; settings: for Kp / Cmax / MRT / Tmax: male, mouse, ip; for Kp: brain/plasma, read-out: Kp (AUC0–120h ratio)
Protocol: TEC-1 was intraperitoneally administered at doses of 0.2, 0.6, and 2 mg/kg (suspended in saline/0.9% NaCl solution) to male FVB mice (10 days old, 3 mice per a time point). After administration, brain samples and blood samples with heparinized capillary tubes from heart were collected. Blood samples were centrifuged to obtain the plasma fraction. Brain samples were homogenized in 20% (w/v) saline. The samples were deproteinized with acetonitrile followed by centrifugation and the supernatants were analyzed by LC/MS/MS to obtain TEC-1 concentrations of the plasma and brain.

[2] = test system: 106 representative proteins that are drug discovery targets; assay: Eurofins selectivity panel of 106 representative proteins
[3] = general in vitro toxicity and ADME tests; settings: solubility, PAMPA, MDR1, stability, CYP inhibition, CYP induction/PXR, hERG, cytotoxicity, umu, Ames, in vitro micronucleus test
SMN2 splicing = assay: qPCR of SMN transcripts in GM03813 cells exposed to TEC-1 and nusinersen; format: cell-based, human; settings: GM03813, 24 h
Protocol: Transient transfection of GM03813 fibroblasts with nusinersen (final concentration 100 nM) was performed using Lipofectamine 2000. Cells were seeded 6 h prior to transfection at a density of 5 × 10^3 cells/well in 96-well plate. Transfection was performed according to manufacturer’s instructions. Cells were co-incubated either 0.1% DMSO or with TEC-1 at the concentration of 0.03, 0.1, 0.3, 1, and 3 µM for 24 h.

[4] = brain, 0.2 mg/kg i.p. single, juvenile FVB mice
[5] = brain, 0.6 mg/kg i.p. single, juvenile FVB mice
[6] = brain, 2 mg/kg i.p. single, juvenile FVB mice
[7] = plasma, 0.2 mg/kg i.p. single, juvenile FVB mice
[8] = plasma, 0.6 mg/kg i.p. single, juvenile FVB mice
[9] = plasma, 2 mg/kg i.p. single, juvenile FVB mice

With `Cc1cn2nc(-c3nc4ccc(N5CCN(C)CC5)cc4c(=O)[nH]3)cc2c(C)n1` [TEC-1, 2-(4,6-dimethylpyrazolo[1,5-a]pyrazin-2-yl)-6-(4-methylpiperazin-1-yl)quinazolin-4(3H)-one] the ChAT protein level (ChAT protein) was “increase the levels of choline acetyltransferase (ChAT)”, the “AUC0–24 h” value [1, 4] was 69.7 ng･h/g and the “AUC0–120 h” value [1, 4] was 87.7 ng･h/g. For the same compound, the “AUC0–24 h” value [1, 5] was 600.3 ng･h/g, the “AUC0–120 h” value [1, 5] was 716.7 ng･h/g and the “AUC0–24 h” value [1, 6] was 3547.9 ng･h/g. The “AUC0–120 h” value [1, 6] was 8261.5 ng･h/g, the Kp ([1]; 0.2 mg/kg i.p. single, juvenile FVB mice) was 5.8 and the Kp ([1]; 0.6 mg/kg i.p. single, juvenile FVB mice) was 4.8. It also gave a Kp ([1]; 2 mg/kg i.p. single, juvenile FVB mice) of 4.5, a Cmax [1, 4] of 10.5 ng/g and an MRT [1, 4] of 11.2 h. It also gave a Tmax [1, 4] of 0.5 h, a Cmax [1, 5] of 63.2 ng/g and an MRT [1, 5] of 11.8 h. The Tmax [1, 5] was 1 h, the Cmax [1, 6] was 219 ng/g and the MRT [1, 6] was 35.8 h. It also gave a Tmax [1, 6] of 1 h, a Cmax ([1]; plasma, 0.2 mg/kg i.p. single, juvenile (10-day-old) FVB mice, n = 3, pool) of 2.2 ng/mL and an MRT [1, 7] of 7.21 h. For the same compound, the Tmax [1, 7] was 0.5 h, the Cmax [1, 8] was 11.3 ng/mL and the MRT [1, 8] was 10.7 h. For the same compound, the Tmax [1, 8] was 0.5 h, the Cmax [1, 9] was 42 ng/mL and the MRT [1, 9] was 40.4 h. The Tmax [1, 9] was 3 h, the “AUC0–24 h” value [1, 7] was 15.2 ng･h/mL and the “AUC0–120 h” value [1, 7] was 15.2 ng･h/mL. For the same compound, the “AUC0–24 h” value [1, 8] was 129.9 ng･h/mL, the “AUC0–120 h” value [1, 8] was 149.1 ng･h/mL and the “AUC0–24 h” value [1, 9] was 718.6 ng･h/mL. The “AUC0–120 h” value [1, 9] was 1829.8 ng･h/mL, the “effect on biological activity of 106 representative proteins” value [2] was “weakly affected the biological activity of only two targets” and the “general in vitro toxicity and ADME profile” value [3] was “good profiles”. For the same compound, the “effect on the activity of nusinersen” value (SMN2 splicing; TEC-1 at 1 and 3 µM with nusinersen 100 nM) was “significantly enhanced the effects of nusinersen” and the “effect on the activity of nusinersen” value (SMN2 splicing; low concentrations of TEC-1 with nusinersen 100 nM) was “did not inhibit the effects of nusinersen”.
